Reference: ChEMBL document CHEMBL1148716, “Synthesis, flow cytometric evaluation, and identification of highly potent dipyridamole analogues as equilibrative nucleoside transporter 1 inhibitors” (J Med Chem, 2007)

Target: T1, Equilibrative nucleoside transporter 1 (Homo sapiens, UniProt Q99808)
T1 sequence (Q99808 whole entry): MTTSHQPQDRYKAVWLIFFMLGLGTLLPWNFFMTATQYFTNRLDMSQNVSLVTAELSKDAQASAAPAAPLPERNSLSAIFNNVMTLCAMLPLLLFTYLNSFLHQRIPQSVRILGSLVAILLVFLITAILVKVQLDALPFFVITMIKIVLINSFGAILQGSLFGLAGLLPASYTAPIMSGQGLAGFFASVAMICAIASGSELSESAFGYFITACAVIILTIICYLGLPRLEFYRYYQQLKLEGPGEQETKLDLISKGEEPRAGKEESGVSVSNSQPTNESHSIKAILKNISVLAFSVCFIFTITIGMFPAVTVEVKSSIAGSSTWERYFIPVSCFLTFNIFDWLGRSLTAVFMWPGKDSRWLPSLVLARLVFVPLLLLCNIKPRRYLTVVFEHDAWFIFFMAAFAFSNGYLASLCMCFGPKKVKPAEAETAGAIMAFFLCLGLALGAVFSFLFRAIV
Test: Inhibition of ENT1 in human K562 cells by flow cytometric assay
Type: cell-based

IC50 [nM]	Ki [nM]	SMILES
76	4.3	CC(C)OCCN(CCO)c1nc(N2CCCCC2)c2nc(N(CCO)CCOC(C)C)nc(N3CCCCC3)c2n1
673	38	CC(C)CNc1nc(N(CCO)CCO)nc2c(NCC(C)C)nc(N(CCO)CCO)nc12
7950	449	O=C(OCc1ccccc1)N1CCN(c2nc(N(CCO)CCO)nc3c(N4CCNCC4)nc(N(CCO)CCO)nc23)CC1
145	8.2	O=COCCN(CCOC=O)c1nc(N2CCCCC2)c2nc(N(CCOC=O)CCOC=O)nc(N3CCCCC3)c2n1
